Patent US11826403B2, “Target for diabetes treatment and prevention” (UNIVERSITE DE STRASBOURG, priority 2014, dated 2023)

Columns and labels:
[1] = test system: human mature adipocytes; assay: 2-NBDG absorption in control and ALMS1-silenced mature adipocytes; type: cell-based; conditions: for 2-NBDG absorption: ALMS1-silenced adipocytes, 30 min stimulation
Description: (§1) Cell culture. Human white visceral preadipocytes (Catalog #: C-12732; PromoCell) and human mesenchymal stem cells (Catalog #: C-12974; PromoCell) derived from healthy bone marrow were purchased. The preadipocytes were seeded according to manufacturer's protocol and cultured in the Preadipocyte growth medium (Catalog #: C-27410; PromoCell) to confluence. One day before inducing terminal adipogenesis, the cells were infected with specific lentiviral particles consisted of a pool of 3 shRNAs target-specific constructs purchased from Santa Cruz Biotechnology and on the next day, adipogenic differentiation was induced by changing the medium to the Preadipocyte Differentiation Medium (Catalog #: C-27436; PromoCell) for 2 days. After the differentiation phase, the medium was finally changed to the Adipocyte Nutrition medium (Catalog #: C-27438; PromoCell). For the culture without insulin, Adipocyte Basal Medium (Catalog #: C-2431; PromoCell) without insulin was complemented with 5 g/L of deoxyglucose, 8 μg/mL d-Biotin, 400 ng/mL Dexamethasone. For the hMSCs, they were cultured in Mesenchymal Stem Cell Growth Medium (Catalog #: C-28010; PromoCell) to confluence. hMSCs were transfected with specific siRNAs as described above and on the next day adipogenic differentiation was induced by changing the medium to the MSC Adipogenic Differentiation Medium (Catalog #: C28011; Promocell).
Following ALMS1 silencing in 2-week-old mature adipocytes, glucose absorption capacity was assessed using labelled glucose analogue (2-NBDG). In the absence of insulin stimulation, no 2-NBDG uptake could be detected in ALMS1-silenced and control mature adipocytes (FIG. 2A). […] Further to reduced glucose absorption in ALMS1-silenced adipocytes, the inventors observed a reduction in intracellular triglycerides (TG) in these cells a week later (FIGS. 2C-D). […]

[2] = test system: human mature adipocytes; assay: Acridine orange acidification of adipocytes (time lapse); type: cell-based
From the text: While AKT-phosphorylation of TBC1D4 has been known to in some way lead to GLUT4 trafficking, the ultimate GSV-PM fusion step is an insulin regulated non-AKT dependent event that requires osmotic swelling of the GSVs under the action of the vATPase H^+ pump. However, knowledge of the actual signal and mechanism for activation of the H^+ pump by insulin was missing. The inventors tested if ALMS1 inactivation could prevent the acidification of the GSVs and therefore the chemo-osmotic-mediated release of GLUT4 to the PM using the acidotrophic dye, acridine orange, which emits a green fluorescence at low concentration and an orange-red fluorescence at high concentrations in the lysosomes in which acridine orange is protonated and sequestered. In absence of insulin, no orange-red fluorescence was detected in the adipocytes.
(§2) The inventors next tested whether acidifying ALMS1-silenced adipocytes using Nigericin (NIG.), an electroneutral K^+/H^+ exchange ionophore known to cause osmotic swelling of the GSVs would bypass the Alms1-associated defect in GLUT4 fusion and glucose absorption.

[3] = test system: ALMS1-silenced adipocytes; assay: Intracellular triglyceride (TG) filling of ALMS1-silenced adipocytes; type: cell-based, human; conditions: 24-hours post NIG treatment
Description: Fluorescence measurement. The preadipocytes were cultured in a 96 well plate and 12 wells infected with the either ALMS1 shRNA lentiviral particles or CTRL shRNA lentiviral particles and differentiated the next day into mature adipocytes. 3 weeks later, the intracellular triglycerides were stained with AdipoRed staining following the manufacturer's procedure and the fluorescence was measured on a Tecan Infinite 200 quad4 monochromator (Tecan, Lyon, France) at a wavelength of 520 nm. The generated data were then analyzed using the Tecan Magellan Data Analysis software using as blank unstained adipocytes. The inventors next tested whether acidifying ALMS1-silenced adipocytes using Nigericin (NIG.), an electroneutral K^+/H^+ exchange ionophore known to cause osmotic swelling of the GSVs would bypass the Alms1-associated defect in GLUT4 fusion and glucose absorption.

[4] = test system: ALMS1-silenced adipocytes; assay: Immunodetection of GLUT4 / TBC1D4 at the plasma membrane in ALMS1-silenced adipocytes; type: cell-based, human; conditions: NIG-treated ALMS1-silenced adipocytes
Description: Western blots and immunofluorescence microscopy. Male Alms1^foz/foz and WT littermates were anaesthetized. The following insulin sensitive tissues: liver, heart, muscle and adipose tissue were harvested and directly placed in RIPA buffer (Tris 50 mM, NaCl 150 mM, 0.1% SDS, 1% Triton-X100) supplemented with Complete mini protease inhibitor cocktail and PhosSTOP phosphatase inhibitor cocktail (Roche, Switzerland). Samples were sonicated and centrifuged […] at 17 000 g, 4° C. […]. Protein concentration assayed with BCA assay (Thermo Fisher Scientific, USA). Cellular proteins from cells were obtained by trichloroacetic acid precipitation and immunoblot analyses were performed using 30-50 μg total protein. Specific antibody binding was visualized using the SuperSignal® West Femto Maximum Sensitivity Substrate (catalog #: Lf145954, Pierce) on a BioRad Versadoc™ Imaging System or ImageQuant LAS 4000 imager (GE Healthcare, UK). Nonspecific proteins stained with Ponceau S were used as loading controls to normalize the signal obtained after specific immunodetection of the protein of interest using the Bio-Rad Quantity One program. For immunofluorescence experiments, the cells were seeded on permanox 8-wells Lab-Tek II Chamber Slide (Catalog #: 177445; NUNC). Cells were treated as indicated. […]

[5] = test system: human mature adipocytes; assay: Electron microscopy of vesicle swelling and fusion with the plasma membrane; type: cell-based
From the text: as §2

[6] = test system: Alms1foz/foz mice; assay: Insulin tolerance test (ITT) in Alms1foz/foz mice; type: in vivo, mouse
From the text: Six month old obese and young (<60 days old) nonobese Alms1^foz/foz mice and wildtype (WT) littermates were used to investigate what primary metabolic impairment leads Alms1^foz/foz mice to develop T2DM. Six month old Alms1^foz/foz mice were obese with an average body weight of 45.5 g±1.7 g compared to 26.4 g±1.3 g for WT littermates (FIG. 1A) and as previously shown had fasting hyperglycaemia and impaired glucose tolerance with elevated HOMA scores. […] (FIG. 1C). Obesity of Alms1^foz/foz mice was due to severe adipocyte hypertrophy (FIG. 1B) rather than the adipocyte hyperplasia more typically seen in obese BBS mice. To determine what the primary defect was that was causing the glucose intolerance in Alms1^foz/foz mice, young lean Alms1^foz/foz mice were studied to remove the confounding effect of obesity on insulin responsiveness. […]
Biochemical tests. […] Tail blood was obtained and the plasma glucose was determined for each mouse using a glucometer (Optium Xceed, Abbott, USA) and blood glucose test strips (Optium point of care, Abbott, USA) at 0, 15, 30 and 60 min after insulin injection. […] Plasma glucose was determined for each mouse using a glucometer with sampling via tail vein at 0, 15, 30, 60 and 120 min after glucose injection. […] The homeostasis model assessment of insulin resistance (HOMA-IR) index was calculated using individual mouse fasting insulin and fasting glucose levels. […]

[7] = test system: mature adipocytes; assay: 2-NBDG glucose absorption in mature adipocytes infected with min-αPKC lentiviral particles; type: cell-based, human; conditions: n=8 per group
Description: as §1, with “Promocell). […]” for “Promocell).”

[8] = control human mature adipocytes

| Compound | 2-NBDG absorption [1] | acidification (acridine orange orange-red fluorescence) ([2]; ALMS1-silenced adipocytes) | acidification (acridine orange orange-red fluorescence) [2, 8] | TG-filling of adipocytes [3] | GLUT4 fusion with the PM [4] | vesicular swelling and fusion with the PM ([5]; ALMS1-silenced adipocytes) | vesicular swelling and fusion with the PM ([5]; control adipocytes) | 2-NBDG uptake ([1]; control human mature adipocytes, insulin stimulation) | insulin responsiveness (ITT) ([6]; 2 months old nonobese Alms1foz/foz males) | glycaemia response to insulin administration (ITT) ([6]; six month old obese Alms1foz/foz mice, doses as high as 20 U/kg) | 2-NBDG absorption, increase compare to control ([7]; absence of INS, control lentiviral particles as comparator) | 2-NBDG absorption versus control ([7]; presence of INS) |
| --- | --- | --- | --- | --- | --- | --- | --- | --- | --- | --- | --- | --- |
| CO[C@@H]1C[C@@H](C[C@H]2CC[C@H](C)[C@H]([C@@H](C)C(=O)O)O2)O[C@]2(O[C@](C)([C@H]3CC[C@@](C)([C@@H]4O[C@@H]([C@H]5O[C@@](O)(CO)[C@H](C)C[C@@H]5C)C[C@@H]4C)O3)C[C@H]2C)[C@@H]1C [Nigericin] | restore 2-NBDG absorption in the ALMS1-silenced adipocytes to levels seen in control cells | rapid acidification | rapid acidification | restoration of TG-filling | restored GLUT4 fusion with the PM | induced vesicular swelling and fusion with the PM | induced vesicular swelling and fusion with the PM |  |  |  |  |  |
| insulin | little effect | loss of insulin-mediated acidification | rapid appearance of red color |  |  | not in ALMS1-silenced adipocytes | swelling of the vesicles | increased 2-NBDG uptake | significantly reduced insulin responsiveness | unresponsive |  |  |
| min-αPKC-FLAG: minimum ALMS1-interacting domain of αPKC (SEQ ID NOs: 14 and 15) with Flag-TAG, expressed from a lentiviral vector |  |  |  |  |  |  |  |  |  |  | 3.5 times | no significant difference |
